Source: ChEMBL document CHEMBL4371049, “Semi-synthesis and anti-tumor activity of novel 25-OCH3-PPD derivatives incorporating aromatic moiety” (Bioorg Med Chem Lett, 2019)

How the values were obtained:
Format in all cases: functional, cell-based
HepG2 = assay: Antiproliferative activity against human HepG2 cells after 48 hrs by MTT assay; conditions: HepG2, 48 h
BGC-823 = assay: Antiproliferative activity against human BGC823 cells after 48 hrs by MTT assay; conditions: BGC-823, 48 h
DU-145 = assay: Antiproliferative activity against human DU145 cells after 48 hrs by MTT assay; conditions: DU-145, 48 h
PC-3 = assay: Antiproliferative activity against human PC3 cells after 48 hrs by MTT assay; conditions: PC-3, 48 h
MCF7 = assay: Antiproliferative activity against human MCF7 cells after 48 hrs by MTT assay; conditions: MCF7, 48 h

| IC50 (HepG2) | IC50 (BGC-823) | IC50 (DU-145) | IC50 (PC-3) | IC50 (MCF7) | SMILES |
| --- | --- | --- | --- | --- | --- |
| > 50 µM | > 50 µM | > 50 µM | > 50 µM | > 50 µM | COC(C)(C)CCC[C@@](C)(O)[C@H]1CC[C@]2(C)[C@@H]1[C@H](OC(=O)c1cc([N+](=O)[O-])cc([N+](=O)[O-])c1)C[C@@H]1[C@@]3(C)CC[C@H](O)C(C)(C)[C@@H]3CC[C@]12C |
| > 50 µM | > 50 µM | > 50 µM | > 50 µM | > 50 µM | COC(C)(C)CCC[C@@](C)(O)[C@H]1CC[C@]2(C)[C@@H]1[C@H](OC(=O)/C=C/c1ccc(F)cc1)C[C@@H]1[C@@]3(C)CC[C@H](O)C(C)(C)[C@@H]3CC[C@]12C |
| > 50 µM | > 50 µM | > 50 µM | > 50 µM | > 50 µM | COC(C)(C)CCC[C@@](C)(O)[C@H]1CC[C@]2(C)[C@@H]1[C@H](OC(=O)c1cc(I)ccc1Cl)C[C@@H]1[C@@]3(C)CC[C@H](OC(=O)c4cc(I)ccc4Cl)C(C)(C)[C@@H]3CC[C@]12C |
| 43.6 µM | 36.1 µM | 22.6 µM | 38.4 µM | 41.7 µM | COC(C)(C)CCC[C@@](C)(O)[C@H]1CC[C@]2(C)[C@@H]1[C@H](O)C[C@@H]1[C@@]3(C)CC[C@H](OC(=O)c4cc(Br)cc(Br)c4)C(C)(C)[C@@H]3CC[C@]12C |

Further lines, the compound ahead of its results:

| SMILES | IC50 (HepG2) | IC50 (BGC-823) | IC50 (DU-145) | IC50 (PC-3) | IC50 (MCF7) |
| --- | --- | --- | --- | --- | --- |
| COC(C)(C)CCC[C@@](C)(O)[C@H]1CC[C@]2(C)[C@@H]1[C@H](OC(=O)c1ccc([N+](=O)[O-])cc1)C[C@@H]1[C@@]3(C)CC[C@H](O)C(C)(C)[C@@H]3CC[C@]12C | > 50 µM | > 50 µM | > 50 µM | > 50 µM | > 50 µM |
| COC(C)(C)CCC[C@@](C)(O)[C@H]1CC[C@]2(C)[C@@H]1[C@H](OC(=O)c1ccccc1I)C[C@@H]1[C@@]3(C)CC[C@H](OC(=O)c4ccccc4I)C(C)(C)[C@@H]3CC[C@]12C | > 50 µM | > 50 µM | > 50 µM | > 50 µM | > 50 µM |
| COC(C)(C)CCC[C@@](C)(O)[C@H]1CC[C@]2(C)[C@@H]1[C@H](OC(=O)c1ccc(Br)cc1)C[C@@H]1[C@@]3(C)CC[C@H](OC(=O)c4ccc(Br)cc4)C(C)(C)[C@@H]3CC[C@]12C | > 50 µM | > 50 µM | > 50 µM | > 50 µM | > 50 µM |
| COC(C)(C)CCC[C@@](C)(O)[C@H]1CC[C@]2(C)[C@@H]1[C@H](OC(=O)c1ccccc1C)C[C@@H]1[C@@]3(C)CC[C@H](O)C(C)(C)[C@@H]3CC[C@]12C | > 50 µM | > 50 µM | > 50 µM | > 50 µM | > 50 µM |
| COC(C)(C)CCC[C@@](C)(O)[C@H]1CC[C@]2(C)[C@@H]1[C@H](O)C[C@@H]1[C@@]3(C)CC[C@H](OC(=O)c4ccccc4[N+](=O)[O-])C(C)(C)[C@@H]3CC[C@]12C | 12 µM | 7.9 µM | 11.5 µM | 14.8 µM | 8.6 µM |
| COC(C)(C)CCC[C@@](C)(O)[C@H]1CC[C@]2(C)[C@@H]1[C@H](OC(=O)c1ccc(F)cc1F)C[C@@H]1[C@@]3(C)CC[C@H](OC(=O)c4ccc(F)cc4F)C(C)(C)[C@@H]3CC[C@]12C | > 50 µM | 37.7 µM | > 50 µM | 43.2 µM | > 50 µM |
| COC(C)(C)CCC[C@@](C)(O)[C@H]1CC[C@]2(C)[C@@H]1[C@H](OC(=O)c1cc(F)ccc1Br)C[C@@H]1[C@@]3(C)CC[C@H](OC(=O)c4cc(F)ccc4Br)C(C)(C)[C@@H]3CC[C@]12C | > 50 µM | > 50 µM | > 50 µM | > 50 µM | > 50 µM |
